ChEMBL document CHEMBL4483862, “Open-source discovery of chemical leads for next-generation chemoprotective antimalarials” (2018)

System: Plasmodium berghei
Assay: Luciferase/luciferin-expressing antifolate-resistant parasites were used to infect a culture of HepG2 cells that were pre-incubated with compounds. Infected hepatocytes emit light due to the luciferase reaction. Assay results are presented as the percent inhibition of light emission compared to control. […]
Assay type: functional
Conditions: sporozoite; for IC90: read-out: LUCIFERASE INFECTION ASSAY - IC90
[1] = read-out: LUCIFERASE INFECTION ASSAY - IC50

Row | Compound | IC50 [1] [µM] | IC90 [µM] | also measured
1 | CC(C)(C)c1ccc(-c2nnc(SCC(=O)N3CCc4ccccc4C3)n2Cc2ccccc2)cc1 | > 10 | > 10 | 
2 | COc1ccc(C(c2cc(Cl)c3cccnc3c2O)N2CCN(C)CC2)cc1 (stereo unspecified) |  | 3.38 | IC50 (FFLUC_HILL_SLOPE 2.4, FFLUC_R_SQUARED 0.862, HEPG2TOX_HILL_SLOPE 1.1, HEPG2TOX_R_SQUARED 0.743, PBLUC_HILL_SLOPE 15.9, PBLUC_R_SQUARED 0.801, read-out: LUCIFERASE INFECTION ASSAY - IC50): 2.95 µM
3 | COc1ccc(C(=O)NN(C)c2nc3ccccc3nc2C(F)(F)F)cc1 |  | 4.32 | IC50 (HEPG2TOX_HILL_SLOPE 1.65, HEPG2TOX_R_SQUARED 0.987, PBLUC_HILL_SLOPE 2.07, PBLUC_R_SQUARED 0.843, read-out: LUCIFERASE INFECTION ASSAY - IC50): 1.49 µM
4 | O=C(COc1ccc2[nH]c3ccccc3c(=O)c2c1)Nc1ccccc1Cc1ccccc1 |  | 0.11 | IC50 (PBLUC_HILL_SLOPE 1.04, PBLUC_R_SQUARED 0.893, read-out: LUCIFERASE INFECTION ASSAY - IC50): 0.0133 µM
5 | N#C/C(=N\Nc1ccc(C(F)(F)F)cc1)S(=O)(=O)c1cccs1 |  | 8.89 | IC50 (HEPG2TOX_HILL_SLOPE 12.1, HEPG2TOX_R_SQUARED 0.95, PBLUC_HILL_SLOPE 4.11, PBLUC_R_SQUARED 0.238, read-out: LUCIFERASE INFECTION ASSAY - IC50): 5.21 µM
6 | CCCNC(=O)c1c(NC(=O)c2ccc(OCC)cc2)nc2ccccn12 |  | 8.98 | IC50 (PBLUC_HILL_SLOPE 45.3, PBLUC_R_SQUARED 0.241, read-out: LUCIFERASE INFECTION ASSAY - IC50): 8.55 µM
7 | CCn1c(NC(=O)c2[nH]nc3ccccc23)nc2ccccc21 |  | > 10 | IC50 (HEPG2TOX_HILL_SLOPE 8.17, HEPG2TOX_R_SQUARED 0.11, PBLUC_HILL_SLOPE 5.04, PBLUC_R_SQUARED 0.686, read-out: LUCIFERASE INFECTION ASSAY - IC50): 7.76 µM
8 | Cc1ccc(N(CCC#N)C(=O)COC(=O)c2c3c(nc4ccccc24)/C(=C/c2c(F)cccc2Cl)CC3)cc1 | > 10 | > 10 | 
9 | N#C/C=C/C=C/c1nnn(-c2ccc(Cl)cc2)n1 |  | 12.6 | IC50 (PBLUC_HILL_SLOPE 14.5, PBLUC_R_SQUARED 0.28, read-out: LUCIFERASE INFECTION ASSAY - IC50): 10.9 µM
10 | O=C(c1c[nH]c2ccccc12)N1CCC(Cc2ccccc2)CC1 | > 10.4 | > 10.4 | 
11 | CC(=O)Nc1ccc(S(=O)(=O)N(C)CC(=O)NCCC(=O)N2CCCC2)cc1 | > 10 | > 10 | 
12 | O=C(CN1CC=C(c2c[nH]c3ccccc23)CC1)Nc1ccccc1OC(F)F |  | > 10 | IC50 (HEPG2TOX_HILL_SLOPE 99.6, HEPG2TOX_R_SQUARED 0.512, PBLUC_HILL_SLOPE 10, PBLUC_R_SQUARED 0.0817, read-out: LUCIFERASE INFECTION ASSAY - IC50): > 10 µM
13 | CN(C)S(=O)(=O)c1ccc(OCCOC(=O)c2c3c(nn2-c2ccccc2)CCCC3)cc1 |  | > 10 | IC50 (FFLUC_HILL_SLOPE 11.3, FFLUC_R_SQUARED 0.368, read-out: LUCIFERASE INFECTION ASSAY - IC50): > 10 µM
14 | O=C(Cc1ccccc1)NCC(=O)N1CCc2nc(NCc3cccc(Oc4ccccc4)c3)ncc2C1 | > 6.5 | > 6.5 | 
15 | Cc1cc(/C=C(\C#N)c2nc3ccccc3n2C)c(C)n1-c1ccc(Cl)c(C(F)(F)F)c1 | > 10 | > 10 | 
16 | Cc1cc([N+](=O)[O-])cc(S(=O)(=O)N(Cc2ccc(C(=O)NC3CC3)cc2)C2CC2)c1C |  | 2.18 | IC50 (PBLUC_HILL_SLOPE 2.2, PBLUC_R_SQUARED 0.808, read-out: LUCIFERASE INFECTION ASSAY - IC50): 0.801 µM
17 | Fc1ccc(-c2nc3ccccc3n2-c2cc(-c3ccccc3)n[nH]2)cc1 |  | 5.27 | IC50 (PBLUC_HILL_SLOPE 1.15, 2.25, PBLUC_R_SQUARED 0.601, 0.956, read-out: LUCIFERASE INFECTION ASSAY - IC50): 1.58 µM
18 | CCCCN1C(=O)C(=O)c2cc(Br)cc(C)c21 |  | > 10 | IC50 (PBLUC_HILL_SLOPE 2.24, PBLUC_R_SQUARED 0.667, read-out: LUCIFERASE INFECTION ASSAY - IC50): 4.61 µM
19 | CS(=O)(=O)Nc1ccc(-c2csc(NC(=O)c3ccc4ncsc4c3)n2)cc1 | > 10 | > 10 | 
20 | CCNC(=O)c1nn(Cc2ccccc2)c2c1CC(NCc1ccc(Cl)s1)CC2 (stereo unspecified) |  | > 7.69 | IC50 (PBLUC_HILL_SLOPE 15.3, PBLUC_R_SQUARED 0.172, read-out: LUCIFERASE INFECTION ASSAY - IC50): 7.58 µM
21 | CN(CCOC(=O)Nc1cc(Cl)cc(Cl)c1)c1ncc(C(F)(F)F)cc1Cl | > 7.46 | > 7.46 | 
22 | O=C1c2ccccc2O[C@@H](c2ccc([N+](=O)[O-])cc2)[C@@H]1O |  | > 11.6 | IC50 (PBLUC_HILL_SLOPE 15.1, PBLUC_R_SQUARED 0.277, read-out: LUCIFERASE INFECTION ASSAY - IC50): 10.8 µM

Row | Compound | IC50 [1] [µM] | IC90 [µM] | also measured
23 | CC(C)c1ccc(-c2nnc(NC(=O)c3cn4ccccc4n3)s2)cc1 | 9.54 | > 10 | 
24 | COc1ccc(-c2cs/c(=N\c3ccccc3C(F)(F)F)n2/N=C/c2ccc(O)c(O)c2)cc1 |  | > 10 | IC50 (HEPG2TOX_HILL_SLOPE 0.402, HEPG2TOX_R_SQUARED 0.786, PBLUC_HILL_SLOPE 2.07, PBLUC_R_SQUARED 0.586, read-out: LUCIFERASE INFECTION ASSAY - IC50): 3.82 µM
25 | CC1=CC2(C)C3C(=O)N(c4ccc(OC(F)(F)F)cc4)C(=O)C3C1C1C(=O)N(c3ccc(OC(F)(F)F)cc3)C(=O)C12 (stereo unspecified) |  | > 5.55 | IC50 (HEPG2TOX_HILL_SLOPE 2.78, HEPG2TOX_R_SQUARED 0.438, PBLUC_HILL_SLOPE 7.06, PBLUC_R_SQUARED 0.285, read-out: LUCIFERASE INFECTION ASSAY - IC50): 5.08 µM
26 | O=[N+]([O-])c1cnc(Sc2nnc(SCC3CC3)s2)s1 |  | > 9.93 | IC50 (PBLUC_HILL_SLOPE 11.6, PBLUC_R_SQUARED 0.0358, read-out: LUCIFERASE INFECTION ASSAY - IC50): 9.69 µM
27 | Cc1cc(C)cc(Nc2nc(=O)c(Cc3ccc(Cl)cc3)n[nH]2)c1 |  | 8.45 | IC50 (FFLUC_HILL_SLOPE 1.04, FFLUC_R_SQUARED 0.238, PBLUC_HILL_SLOPE 2.61, PBLUC_R_SQUARED 0.421, read-out: LUCIFERASE INFECTION ASSAY - IC50): 3.64 µM
28 | Cc1ccc(-c2nnc(SCC(=O)N3c4ccccc4OCC3c3ccccc3)[nH]2)cc1 (stereo unspecified) | > 10 | > 10 | 
29 | Cc1nc2ccccn2c1C(=O)N/N=C/c1c(-c2ccccc2)n(-c2ccccc2)c2ccccc12 | > 10 | > 10 | 
30 | Cc1nc(N2N=C3/C(=C/c4ccc(F)cc4)CCCC3C2c2ccc(F)cc2)sc1C(=O)N(C)C (stereo unspecified) | > 10 | > 10 | 
31 | CCOc1ccc(-n2c(C)cc(/C=C(\C#N)c3ccccn3)c2C)cc1 |  | > 10 | IC50 (PBLUC_HILL_SLOPE 2.96, PBLUC_R_SQUARED 0.363, read-out: LUCIFERASE INFECTION ASSAY - IC50): 8.53 µM
32 | O=C(COC(=O)/C=C/c1cn(-c2ccccc2)nc1-c1ccc(Cl)cc1)NC(=O)NC1CCCC1 | 9.03 | > 10 | 
33 | Cc1ccc(N/N=C(\C=N\N)C(=O)c2ccc(Cl)cc2)cc1 |  | > 10.5 | IC50 (HEPG2TOX_HILL_SLOPE 1.68, HEPG2TOX_R_SQUARED 0.854, PBLUC_HILL_SLOPE 3.07, PBLUC_R_SQUARED 0.149, read-out: LUCIFERASE INFECTION ASSAY - IC50): 5.16 µM
34 | CN(C)Cc1ccccc1CNC(=O)Nc1ccc(Cl)c(Cl)c1 |  | > 2 | IC50 (PBLUC_HILL_SLOPE 1.7, PBLUC_R_SQUARED 0.0619, read-out: LUCIFERASE INFECTION ASSAY - IC50): 0.986 µM
35 | O=C1c2ccccc2C(=Cc2ccc(C(F)(F)F)cc2)c2ccccc21 | 3.58 | 4.1 | 
36 | CCOC(=O)c1c(C)noc1/C(C)=N/Nc1cc(C(F)(F)F)cc(C(F)(F)F)c1 |  | > 7.8 | IC50 (FFLUC_HILL_SLOPE 2.91, FFLUC_R_SQUARED 0.779, PBLUC_HILL_SLOPE 12.4, PBLUC_R_SQUARED 0.288, read-out: LUCIFERASE INFECTION ASSAY - IC50): > 7.8 µM
37 | Cc1ccc(Oc2cccc(F)c2C#N)cc1 | > 14.5 | > 14.5 | 
38 | Cc1ccc(CN2C(=O)C(O)(c3c[nH]c4ccccc34)c3ccccc32)c(C)c1 (stereo unspecified) |  | 6.05 | IC50 (FFLUC_HILL_SLOPE 13.6, FFLUC_R_SQUARED 0.607, PBLUC_HILL_SLOPE 3.72, PBLUC_R_SQUARED 0.631, read-out: LUCIFERASE INFECTION ASSAY - IC50): 3.35 µM
39 | Cc1cc(C)c(N2C(=O)C=CC2=O)c(C)c1 |  | 13.1 | IC50 (FFLUC_HILL_SLOPE 3.47, FFLUC_R_SQUARED 0.6, PBLUC_HILL_SLOPE 4.24, PBLUC_R_SQUARED 0.739, read-out: LUCIFERASE INFECTION ASSAY - IC50): 7.79 µM
40 | CCOC(=O)c1sc(N)c(C#N)c1CSc1nnc(-c2ccncc2)n1-c1ccc(CC)cc1 | > 10 | > 10 | 
41 | COc1cc(-c2nc3ccc(NC(=O)c4ccco4)cn3n2)cc(OC)c1OC |  | > 10 | IC50 (PBLUC_HILL_SLOPE 0.261, PBLUC_R_SQUARED 0.0451, read-out: LUCIFERASE INFECTION ASSAY - IC50): > 10 µM
42 | C/C(=N\NC(=O)c1ccc(Cl)cc1)c1ccccc1O |  | 4.32 | IC50 (HEPG2TOX_HILL_SLOPE 1.4, HEPG2TOX_R_SQUARED 0.87, PBLUC_HILL_SLOPE 14.3, PBLUC_R_SQUARED 0.668, read-out: LUCIFERASE INFECTION ASSAY - IC50): 3.7 µM
43 | Clc1ccc(-c2csc(-c3nnc4n3-c3ccccc3SC4)n2)s1 |  | > 10 | IC50 (PBLUC_HILL_SLOPE 1, PBLUC_R_SQUARED 0.439, read-out: LUCIFERASE INFECTION ASSAY - IC50): 6.32 µM
